Assay results published in PubChem BioAssay (NCI).
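Values below derive from 48-hour exposures of cells grown in 96-well plates, with endpoints linearly interpolated between the two concentrations bracketing the appropriate inhibition level. GI50 marks 50% less growth. The concentration for full growth arrest is given as TGI.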

Tests used:
Experiment in all cases: DTP human tumour cell line panel, 48 h
[1] = test system: CCRF-CEM leukemia
[2] = test system: NCI-H460 lung
[3] = test system: SNB-19 CNS
[4] = test system: SK-MEL-28 melanoma
[5] = test system: BT-549 breast
[6] = test system: OVCAR-3 ovarian
[7] = test system: SNB-75 CNS
[8] = test system: HS 578T breast

Compound	GI50 [1] [µM]	TGI [1] [µM]	GI50 [2] [µM]	TGI [2] [µM]	GI50 [3] [µM]	TGI [3] [µM]	GI50 [4] [µM]	TGI [4] [µM]	GI50 [5] [µM]	TGI [5] [µM]	GI50 [6] [µM]	TGI [6] [µM]	GI50 [7] [µM]	TGI [7] [µM]	GI50 [8] [µM]	TGI [8] [µM]
COc1ccc2c(c1)C(=O)c1c-2c(N2CCNCC2)nc2ccccc12	1.36	2.94	0.614	1.98	5.44	20.7	1.85	3.46	3.4	11.4	13	30	10.9	26.5	5.15	20.9
O=S(=O)(NC1=NCCN1C(=S)SN1CCn2c1nsc2=S)c1cccc(OC(F)(F)F)c1	2.16	4.22	13.4	41.4	18	45.4	15.9	32.6	25.7	> 100	5.07	16.4	16.2	38.9	35.9	> 100
Nc1n[nH]c2ccc([C@@H]3Nc4cc5[nH]ncc5cc4[C@H]4C5CCC(C5)[C@@H]34)cc12 (some centres undefined)	0.344	> 40.4	0.368	> 41.4	0.436	> 100	10.5	72.2	0.725	> 46	0.381	13.3	0.27	22.9	0.369	> 100
COc1cccc(CC(C)=C(c2ccc(OCCCN(C)C)cc2)c2ccc(OCCCN(C)C)cc2)c1	0.463	1.13	0.484	0.94	0.905	3.34	0.448	0.822	3.09	6.42	0.545	1.2	0.619	1.77	0.527	1.34
CC/C=C\C/C=C/C=C1/C(=O)C=C[C@@H]1C/C=C\CCCC(=O)OC	1.25	8.7	3.07	8.85	5.06	19.3	2.33	6.42			1.54	6.35	25	> 100	15.1	> 100
O=C(NN1C(=O)CSC1c1ccc(F)cc1)C(O)c1ccccc1 (centres undefined)	> 100	> 100	81.8	> 100	> 100	> 100	> 100	> 100	> 100	> 100	79.5	> 100	33.4	> 100	> 100	> 100
O/N=C1\CCc2nonc2\C1=N/Nc1ccccc1		> 100		> 100		> 100		> 100				> 100		> 100		> 100
NNc1c2ccccc2nc2ccccc12	0.688	> 100	2.48	15.5	5.89	> 100	10.7	60.7	4.15	36.8	5.85	27.3	2.67	17.8	16	> 100
Nc1cc2cccc[n+]2c2cccc(Cl)c12	12	94.4	20.2	58.7	12.7	84.1	17	41.7	16.1	48.8					21.9	60.2
CC(=O)OC(C)C(OC(C)=O)C(OC(C)=O)C(/C=C/C1CC=CC(=O)O1)OC(C)=O (centres undefined)	30.3	> 100	32.7	> 100	33.5	> 100	16.8	46.6	25.5	70.6	30.8	95.5	10.3	28.6	12.4	33.1
Cc1cccc2c(Nc3ccc(NS(C)(=O)=O)cc3)c3ccc([N+](=O)[O-])cc3nc12	0.326	4.52	0.0234	1.76	0.456	14.7	1.51	4.38	1.75	7.47	1.45	4.91	1.12	5.93	1.23	5.42
NCCC(=O)NC(Cc1cnc[nH]1)C(=O)O (centres undefined)		> 100		> 100		> 100		> 100				> 100		> 100		> 100
CC(C)=Nn1cnc(C(=N)C#N)c1N		> 100		> 100		> 100		> 100		> 100		> 100		> 100		
CCN(CC)CCC(CNc1c(C)cnc2cc(Cl)ccc12)c1ccc(Cl)cc1 (centres undefined)	4.32	19.2	10	25.2	11.4	26.8			11.2	24.9	11.9	25.5	5.67	21	12.3	34.1
O=C1c2ccccc2C(=O)N1C1(C(=O)NC2(C(=O)O)CCCC2)CCCC1		> 100				> 100		> 100		> 100		> 100		> 100		> 100
O=c1c(O)cccn1CCCN(CCCn1cccc(O)c1=O)CCn1cccc(O)c1=O	0.386	3.79	2.36	> 100	3.78	> 100	2.31	> 100	10.5	> 100	3.39	> 100	6.1	88.2		
COc1ccc(Oc2ccccc2NC(=O)CNC(=O)c2cccc3ccccc23)cc1	0.904	> 25	0.859	> 25	1.24	> 25	2.27	> 25	1.12	> 25	0.387	> 25			1.71	> 25
